The compounds below were run against T1, FAAH (Homo sapiens, UniProt O00519) (assay: FAAH inhibition, human brain membrane homogenate assay). Settings: average; FAAH extracted from human brain homogenate; read-out: Human brain FAAH Extract IC50.
T1 construct: FAAH activity was assayed in the respective homogenates described herein (Rat brain, Mouse brain or Human brain); tissue Analytical Biological Services (ABS), Inc; host or cells: human brain cortex membrane homogenate
T1 sequence (O00519 1-579): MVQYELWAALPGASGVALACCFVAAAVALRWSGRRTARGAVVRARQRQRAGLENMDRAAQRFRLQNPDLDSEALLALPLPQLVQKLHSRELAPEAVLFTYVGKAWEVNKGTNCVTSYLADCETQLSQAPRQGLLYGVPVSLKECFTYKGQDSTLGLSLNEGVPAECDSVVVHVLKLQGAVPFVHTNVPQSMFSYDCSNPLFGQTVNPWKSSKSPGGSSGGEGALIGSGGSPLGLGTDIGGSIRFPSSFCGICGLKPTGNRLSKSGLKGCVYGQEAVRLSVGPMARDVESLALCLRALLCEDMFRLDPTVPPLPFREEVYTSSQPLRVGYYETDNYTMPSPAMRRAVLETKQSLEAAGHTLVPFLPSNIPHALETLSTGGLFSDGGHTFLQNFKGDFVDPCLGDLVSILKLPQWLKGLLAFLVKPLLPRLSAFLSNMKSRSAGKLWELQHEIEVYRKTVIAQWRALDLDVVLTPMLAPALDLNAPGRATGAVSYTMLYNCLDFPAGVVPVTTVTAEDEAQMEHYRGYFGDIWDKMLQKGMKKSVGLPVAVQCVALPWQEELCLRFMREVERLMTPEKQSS
Assay type: biochemical
Procedure: About 10 g of frozen normal human brain cortex tissue was obtained (e.g., from Analytical Biological Services (ABS), Inc. (Wilmington, Del.)). The brain tissue was thawed and transferred to a large ceramic mortar on ice. 50 mL of ice-cold “homogenization buffer” (20 mM HEPES buffer, pH 7.0, with 1 mM MgCl2) was added to the mortar and the tissue was homogenized with a pestle. The homogenate was centrifuged at 36,500 g for 20 minutes at 4° C. The supernatants were discarded and the pellets were re-suspended in homogenization buffer and centrifuged as before. The supernatants were again discarded and the pellets were re-suspended in 30 mL homogenization buffer and incubated in a 37° C. water bath for 20 minutes. The homogenate was then centrifuged as before. The supernatant was discarded and the membrane pellets were re-suspended in 30 mL “resuspension buffer” (50 mM Tris-HCl buffer, pH 7.4, containing 1 mM EDTA and 3 mM MgCl2). A Bradford Protein assay was performed to determine protein concentration. The protein was aliquotted into screw cap Cryo tubes each containing ˜200 μL, flash frozen in liquid nitrogen and stored at −80° C. until used for the assay.
FAAH activity was assayed in the respective homogenates described herein (Rat brain, Mouse brain or Human brain) for certain exemplary substrate compounds using a modification of the method of Omeir et al. (1995 Life Sci 56:1999) and Fowler et al. (1997 J. Pharmacol Exp Ther 283:729). For assay of FAAH activity in rat brain membrane (RBM) homogenates, RBM homogenates (7 μg protein in 20 μL final volume of 10 mM Tris pH 6.5) were mixed with 180 μL of a mixture of the following: 2.0 μM unlabelled anandamide, 0.03 μCi radio labeled anandamide [ethanolamine 1-^3H] (40-60 Cis/mmol, product number ART-626, American Radiolabeled Chemicals, St. Louis, Mo.), 1 mg/mL Bovine Serum Albumin (fatty acid-free BSA, electrophoresis grade, Sigma, St. Louis, Mo.), 10 mM Tris-HCl (pH 6.5), and 1 mM EDTA in the presence and absence of test compounds (vehicle was DMSO at a final concentration of 1%) and incubated for 10 minutes at 37° C. Samples were placed on ice to terminate the reactions.
^3H-ethanolamine product and un-reacted ^3H-anandamide substrate were then separated either: (1) by using chloroform/methanol extraction or (2) by passing the reaction mixture through a glass fiber filter containing activated charcoal. Samples were extracted with chloroform/methanol by adding 0.4 mL of chloroform/methanol (1:1 v/v), vigorously mixing the samples, and separating the aqueous and organic phases by centrifugation. Radioactivity (corresponding to FAAH-catalyzed breakdown of ^3H-anandamide) found in aliquots (0.2 mL) of the aqueous phase was determined by liquid scintillation counting with quench correction. IC50 values were determined as described by Jonsson et al. (2001 Br. J. Pharmacol. 133:1263). Alternatively, reactions were purified using a modification of the solid-phase extraction method described by Wilson et al (2003 Anal. Biochem. 318:270). This method was modified as follows: after reactions were incubated at 37° C. for 10 minutes and chilled on ice, the reaction mixtures were acidified by adding 10 μL of sodium phosphate solution [0.5M (pH 2.0)]. Next, 90 μL aliquots of the acidified reaction mixtures were applied to activated charcoal (that had been previously washed with methanol as described by Wilson et al. (supra)) containing 80 μL of water on top of a glass fiber filter, centrifuged, and the radioactivity in the eluate was counted as described previously by Wilson et al. (supra).
Table 1 provides activity data for certain compounds tested for inhibition of FAAH using the FAAH rat, mouse and human brain homogenate assays. […]

| Structure (SMILES) | IC50 [nM] |
| --- | --- |
| Cc1c(C(=O)C(=O)Nc2cccc(Cl)c2)c2ccsc2n1Cc1ccc(Cl)cc1 [Compound I-08, 2-(6-(4-chlorobenzyl)-5-methyl-6H-thieno[2,3-b]pyrrol-4-yl)-N-(3-chlorophenyl)-2-oxoacetamide] | 797 |
| COc1cc(NC(=O)C(=O)c2c(C)n(Cc3ccc(Cl)cc3)c3sccc23)ccn1 [Compound I-09, 2-(6-(4-chlorobenzyl)-5-methyl-6H-thieno[2,3-b]pyrrol-4-yl)-N-(2-methoxypyridin-4-yl)-2-oxoacetamide] | 31 |
| Cc1c(C(=O)C(=O)Nc2cccc(Cl)c2)c2c(n1Cc1ccc(Cl)cc1)CCCCCC2 [Compound I-10, 2-(1-(4-chlorobenzyl)-2-methyl-4,5,6,7,8,9-hexahydro-1H-cycloocta[b]pyrrol-3-yl)-N-(3-chlorophenyl)-2-oxoacetamide] | 605 |
| COc1cc(NC(=O)C(=O)c2c3c(n(Cc4ccc(Cl)cc4)c2C)CCCCCC3)ccn1 [Compound I-11, 2-(1-(4-chlorobenzyl)-2-methyl-4,5,6,7,8,9-hexahydro-1H-cycloocta[b]pyrrol-3-yl)-N-(2-methoxypyridin-4-yl)-2-oxoacetamide] | 80 |
| Cc1c(C(=O)C(=O)Nc2cccc(Cl)c2)c2c(n1Cc1ccc(Cl)cc1)CCCCC2 [Compound I-12, 2-(1-(4-chlorobenzyl)-2-methyl-1,4,5,6,7,8-hexahydrocyclohepta[b]pyrrol-3-yl)-N-(3-chlorophenyl)-2-oxoacetamide] | 234 |
| COc1cc(NC(=O)C(=O)c2c3c(n(Cc4ccc(Cl)cc4)c2C)CCCCC3)ccn1 [Compound I-13, 2-(1-(4-chlorobenzyl)-2-methyl-1,4,5,6,7,8-hexahydrocyclohepta[b]pyrrol-3-yl)-N-(2-methoxypyridin-4-yl)-2-oxoacetamide] | 9 |
| Cc1c(C(=O)C(=O)Nc2cccc(Cl)c2)c2c(n1Cc1ccc(Cl)cc1)CCC(C)(C)C2 [Compound I-14, 2-(1-(4-chlorobenzyl)-2,5,5-trimethyl-4,5,6,7-tetrahydro-1H-indol-3-yl)-N-(3-chlorophenyl)-2-oxoacetamide] | 202 |
| COc1cc(NC(=O)C(=O)c2c3c(n(Cc4ccc(Cl)cc4)c2C)CCC(C)(C)C3)ccn1 [Compound I-15, 2-(1-(4-chlorobenzyl)-2,5,5-trimethyl-4,5,6,7-tetrahydro-1H-indol-3-yl)-N-(2-methoxypyridin-4-yl)-2-oxoacetamide] | 94 |
| Cc1c(C(=O)C(=O)Nc2cccc(Cl)c2)c2c(n1Cc1ccc(Cl)cc1)CCCC2 [Compound I-16, 2-(1-(4-chlorobenzyl)-2-methyl-4,5,6,7-tetrahydro-1H-indol-3-yl)-N-(3-chlorophenyl)-2-oxoacetamide] | 119 |
| COc1cc(NC(=O)C(=O)c2c3c(n(Cc4ccc(Cl)cc4)c2C)CCCC3)ccn1 [Compound I-18, 2-(1-(4-chlorobenzyl)-2-methyl-4,5,6,7-tetrahydro-1H-indol-3-yl)-N-(2-methoxypyridin-4-yl)-2-oxoacetamide] | 21 |
| COc1cc(NC(=O)C(=O)c2c(-c3ccccc3)c(C)n(Cc3ccc(Cl)cc3)c2C)ccn1 [Compound I-19, 2-(1-(4-chlorobenzyl)-2,5-dimethyl-4-phenyl-1H-pyrrol-3-yl)-N-(2-methoxypyridin-4-yl)-2-oxoacetamide] | > 5000 |
| Cc1c(C(=O)C(=O)Nc2cccc(Cl)c2)c(-c2ccccc2)c(C)n1Cc1ccc(Cl)cc1 [Compound I-20, 2-(1-(4-chlorobenzyl)-2,5-dimethyl-4-phenyl-1H-pyrrol-3-yl)-N-(3-chlorophenyl)-2-oxoacetamide] | > 5000 |

Next, values leading:

| IC50 [nM] | Structure (SMILES) |
| --- | --- |
| 1010 | COc1cc(NC(=O)C(=O)c2cc(C)n(Cc3ccc(Cl)cc3Cl)c2C)ccn1 [Compound I-21, 2-(1-(2,4-dichlorobenzyl)-2,5-dimethyl-1H-pyrrol-3-yl)-N-(2-methoxypyridin-4-yl)-2-oxoacetamide] |
| 4110 | COc1ccc(Cn2c(C)cc(C(=O)C(=O)Nc3ccnc(OC)c3)c2C)cc1 [Compound I-22, 2-(1-(4-methoxybenzyl)-2,5-dimethyl-1H-pyrrol-3-yl)-N-(2-methoxypyridin-4-yl)-2-oxoacetamide] |
| 2560 | COc1cc(NC(=O)C(=O)c2cc(C)n(Cc3ccc(Cl)cc3)c2-c2ccccc2)ccn1 [Compound I-23, 2-(1-(4-chlorobenzyl)-5-methyl-2-phenyl-1H-pyrrol-3-yl)-N-(2-methoxypyridin-4-yl)-2-oxoacetamide] |
| > 50000 | Cc1cc(C(=O)C(=O)Nc2cccc(Cl)c2)c(-c2ccccc2)n1Cc1ccc(Cl)cc1 [Compound I-24, 2-(1-(4-chlorobenzyl)-5-methyl-2-phenyl-1H-pyrrol-3-yl)-N-(3-chlorophenyl)-2-oxoacetamide] |
| > 50000 | Cc1c(C(=O)C(=O)Nc2cccc(Cl)c2)cc(-c2ccccc2)n1Cc1ccc(Cl)cc1 [Compound I-25, 2-(1-(4-chlorobenzyl)-2-methyl-5-phenyl-1H-pyrrol-3-yl)-N-(3-chlorophenyl)-2-oxoacetamide] |
| > 50000 | Cc1c(C(=O)C(=O)Nc2ccncc2)cc(-c2ccccc2)n1Cc1ccc(Cl)cc1 [Compound I-26, 2-(1-(4-chlorobenzyl)-2-methyl-5-phenyl-1H-pyrrol-3-yl)-2-oxo-N-(pyridin-4-yl)acetamide] |
